Reference: ChEMBL document CHEMBL1255171
The source made the active and inactive calls. No cut-off for these calls is given here. Where a SMILES comes first, the peptide text is derived from it. Bridges are numbered along the chain shown (N, C = ends).

What was measured:
[1] = target: Secretin receptor (Homo sapiens) (UniProt P47872); test: Agonist activity at secretin receptor expressed in CHO cells assessed as increase of cAMP level at 1 uM; type: functional, cell-based
[2] = target: Secretin receptor (Homo sapiens) (UniProt P47872); test: Displacement of [125I]-secretin-27 from secretin receptor expressed in CHO cells at 1 uM by gamma-spectrometer analysis; type: cell-based

Secretin receptor (Homo sapiens), sequence (P47872 whole entry): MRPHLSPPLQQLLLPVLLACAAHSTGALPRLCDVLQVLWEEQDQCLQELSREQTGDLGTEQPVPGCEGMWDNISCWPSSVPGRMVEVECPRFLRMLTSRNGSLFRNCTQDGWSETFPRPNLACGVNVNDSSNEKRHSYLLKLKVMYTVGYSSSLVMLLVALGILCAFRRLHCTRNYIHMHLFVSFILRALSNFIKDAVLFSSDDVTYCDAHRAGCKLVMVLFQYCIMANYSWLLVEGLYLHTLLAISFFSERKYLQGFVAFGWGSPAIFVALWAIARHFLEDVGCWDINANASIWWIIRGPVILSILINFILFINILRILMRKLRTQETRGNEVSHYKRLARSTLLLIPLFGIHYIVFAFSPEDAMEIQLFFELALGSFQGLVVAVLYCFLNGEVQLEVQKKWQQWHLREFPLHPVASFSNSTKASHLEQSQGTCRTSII

Compound: CC(C)C[C@H](NC(=O)CNC(=O)[C@H](CCC(N)=O)NC(=O)[C@H](CC(C)C)NC(=O)[C@H](CC(C)C)NC(=O)[C@H](CCCNC(=N)N)NC(=O)[C@H](CCC(N)=O)NC(=O)[C@H](CC(C)C)NC(=O)[C@H](CCCNC(=N)N)NC(=O)[C@H](C)NC(=O)[C@H](CO)NC(=O)[C@H](CC(=O)O)NC(=O)[C@H](CCC(N)=O)NC(=O)[C@H](CC(C)C)NC(=O)[C@H](CCCNC(=N)N)NC(=O)[C@H](CO)NC(=O)[C@H](Cc1ccc(O)cc1)NC(=O)[C@H](CCC(=O)O)NC(=O)[C@H](CO)NC(=O)[C@@H](NC(=O)[C@H](Cc1ccccc1)NC(=O)[C@@H]1CSSC[C@H](NC(=O)[C@H](CO)NC(=O)[C@@H](N)Cc2cnc[nH]2)C(=O)NCC(=O)N1)[C@@H](C)O)C(=O)N[C@H](C(N)=O)C(C)C (H-HSCGCFTSEYSRLQDSARLQRLLQGLV-NH2; disulfide 3-5)
- Activity [1]: Active
- Activity [2]: Active

Compound: CC(C)C[C@H](NC(=O)CNC(=O)[C@H](CCC(N)=O)NC(=O)[C@H](CC(C)C)NC(=O)[C@H](CC(C)C)NC(=O)[C@H](CCCNC(=N)N)NC(=O)[C@H](CCC(N)=O)NC(=O)[C@H](CC(C)C)NC(=O)[C@H](CCCNC(=N)N)NC(=O)[C@H](C)NC(=O)[C@H](CO)NC(=O)[C@H](CC(=O)O)NC(=O)[C@H](CCC(N)=O)NC(=O)[C@H](CC(C)C)NC(=O)[C@H](CCCNC(=N)N)NC(=O)[C@H](CO)NC(=O)[C@H](Cc1ccc(O)cc1)NC(=O)[C@H](CCC(=O)O)NC(=O)[C@H](CO)NC(=O)[C@@H]1CSSC[C@H](NC(=O)[C@H](CC(=O)O)NC(=O)[C@H](CO)NC(=O)[C@@H](N)Cc2cnc[nH]2)C(=O)N[C@@H]([C@@H](C)O)C(=O)N[C@@H](Cc2ccccc2)C(=O)N1)C(=O)N[C@H](C(N)=O)C(C)C (H-HSDCTFCSEYSRLQDSARLQRLLQGLV-NH2; disulfide 4-7)
- Activity [1]: Active
- Activity [2]: Active

Compound: CC(C)C[C@H](NC(=O)CNC(=O)[C@H](CCC(N)=O)NC(=O)[C@H](CC(C)C)NC(=O)[C@H](CC(C)C)NC(=O)[C@H](CCCNC(=N)N)NC(=O)[C@H](CCC(N)=O)NC(=O)[C@H](CC(C)C)NC(=O)[C@H](CCCNC(=N)N)NC(=O)[C@H](C)NC(=O)[C@H](CO)NC(=O)[C@H](CC(=O)O)NC(=O)[C@H](CCC(N)=O)NC(=O)[C@H](CC(C)C)NC(=O)[C@H](CCCNC(=N)N)NC(=O)[C@H](CO)NC(=O)[C@H](Cc1ccc(O)cc1)NC(=O)[C@@H]1CSSC[C@H](NC(=O)[C@H](Cc2ccccc2)NC(=O)[C@@H](NC(=O)CNC(=O)[C@H](CC(=O)O)NC(=O)[C@H](CO)NC(=O)[C@@H](N)Cc2cnc[nH]2)[C@@H](C)O)C(=O)N[C@@H](CO)C(=O)N1)C(=O)N[C@H](C(N)=O)C(C)C (H-HSDGTFCSCYSRLQDSARLQRLLQGLV-NH2; disulfide 7-9)
- Activity [1]: Active
